Consider 25 substances from the OligoGym collection.

This data set deals with FUS. Kind of data set: mouse, dose not given. The conditions noted are these: ASO.

HELM strings list units from the 5' end as sugar, base in round brackets, then linkage (d deoxyribose, r ribose, m 2'-O-methyl, p phosphodiester). Strings are as the collection lists them; they lack the last nucleoside at the 3' end of the tested compound. [moe] = 2'-O-(2-methoxyethyl) (MOE); [sp] = phosphorothioate linkage; [m5C] = 5-methylcytosine

Take “RNA1{[moe](G)[sp].[moe]([m5C])p.[moe](A)p.[moe](A)p.[moe](T)p.d(G)[sp].d(T)[sp].d([m5C])[sp].d(A)[sp].d([m5C])[sp].d([m5C])[sp].d(T)[sp].d(T)[sp].d(T)[sp].d([m5C])[sp].[moe](A)p.[moe](T)p.[moe](A)[sp].[moe]([m5C])}$$$$ (last 3' nucleoside missing)”: the 3 h FOB score turned out to be 0 score 0-7.

Substance “RNA1{[moe](T)[sp].[moe](G)p.[moe](T)p.[moe](T)p.[moe](T)p.d(A)[sp].d(T)[sp].d([m5C])[sp].d(T)[sp].d(G)[sp].d(A)[sp].d(A)[sp].d(T)[sp].d(T)[sp].d([m5C])[sp].[moe](G)p.[moe]([m5C])p.[moe]([m5C])[sp].[moe](A)}$$$$ (last 3' nucleoside missing)” showed a 3 h FOB score of 3 score 0-7.

For the substance “RNA1{[moe](T)[sp].[moe]([m5C])p.[moe](A)p.[moe](T)p.[moe]([m5C])p.d(G)[sp].d(G)[sp].d(T)[sp].d(T)[sp].d(T)[sp].d([m5C])[sp].d([m5C])[sp].d([m5C])[sp].d(T)[sp].d(T)[sp].[moe](G)p.[moe]([m5C])p.[moe](A)[sp].[moe](G)}$$$$ (last 3' nucleoside missing)”, the 3 h FOB score is 2.25 score 0-7.

Consider “RNA1{[moe](G)[sp].[moe](A)p.[moe](G)p.[moe]([m5C])p.[moe](T)p.d(A)[sp].d(G)[sp].d(T)[sp].d(T)[sp].d(T)[sp].d([m5C])[sp].d(T)[sp].d(A)[sp].d(T)[sp].d(T)[sp].[moe](T)p.[moe](G)p.[moe]([m5C])[sp].[moe]([m5C])}$$$$ (last 3' nucleoside missing)”, for which the 3 h FOB score came out at 0 score 0-7.

The substance “RNA1{[moe](G)[sp].[moe](G)p.[moe](T)p.[moe](T)p.[moe](A)p.d([m5C])[sp].d(A)[sp].d(A)[sp].d(A)[sp].d(A)[sp].d(T)[sp].d(A)[sp].d(A)[sp].d([m5C])[sp].d(G)[sp].[moe](A)p.[moe](G)p.[moe](G)[sp].[moe](G)}$$$$ (last 3' nucleoside missing)” returned a 3 h FOB score of 3 score 0-7.

In turn, “RNA1{[moe](G)[sp].[moe](T)p.[moe](A)p.[moe](T)p.[moe](A)p.d([m5C])[sp].d([m5C])[sp].d(A)[sp].d(A)[sp].d([m5C])[sp].d(T)[sp].d(T)[sp].d([m5C])[sp].d(A)[sp].d([m5C])[sp].[moe]([m5C])p.[moe](A)p.[moe](T)[sp].[moe]([m5C])}$$$$ (last 3' nucleoside missing)” showed a 3 h FOB score of 1 score 0-7.

Substance “RNA1{[moe](A)[sp].[moe](G)p.[moe](T)p.[moe](T)p.[moe](A)p.d([m5C])[sp].d(A)[sp].d(A)[sp].d(T)[sp].d(T)[sp].d(A)[sp].d([m5C])[sp].d(A)[sp].d(T)[sp].d(A)[sp].[moe](G)p.[moe](T)p.[moe]([m5C])[sp].[moe]([m5C])}$$$$ (last 3' nucleoside missing)” returned a 3 h FOB score of 4 score 0-7.

In the case of “RNA1{[moe](G)[sp].[moe](A)p.[moe]([m5C])p.[moe]([m5C])p.[moe]([m5C])p.d([m5C])[sp].d(T)[sp].d([m5C])[sp].d(T)[sp].d(T)[sp].d(A)[sp].d(T)[sp].d(T)[sp].d(A)[sp].d(A)[sp].[moe]([m5C])p.[moe]([m5C])p.[moe](T)[sp].[moe](G)}$$$$ (last 3' nucleoside missing)”, the 3 h FOB score stood at 4 score 0-7.

As for “RNA1{[moe](A)[sp].[moe](G)p.[moe](T)p.[moe]([m5C])p.[moe](A)p.d(G)[sp].d(G)[sp].d(T)[sp].d(T)[sp].d(A)[sp].d(A)[sp].d([m5C])[sp].d([m5C])[sp].d(A)[sp].d(T)[sp].[moe](T)p.[moe](A)p.[moe]([m5C])[sp].[moe]([m5C])}$$$$ (last 3' nucleoside missing)”, the 3 h FOB score turned out to be 1 score 0-7.

“RNA1{[moe](G)[sp].[moe](G)p.[moe](T)p.[moe](T)p.[moe](G)p.d(A)[sp].d([m5C])[sp].d(A)[sp].d(A)[sp].d([m5C])[sp].d([m5C])[sp].d(A)[sp].d(A)[sp].d(G)[sp].d(T)[sp].[moe](A)p.[moe](G)p.[moe](T)[sp].[moe](T)}$$$$ (last 3' nucleoside missing)” displayed a 3 h FOB score of 5 score 0-7.

“RNA1{[moe](T)[sp].[moe](T)p.[moe](A)p.[moe]([m5C])p.[moe](A)p.d(A)[sp].d(T)[sp].d(T)[sp].d(A)[sp].d([m5C])[sp].d(A)[sp].d(T)[sp].d(A)[sp].d(G)[sp].d(T)[sp].[moe]([m5C])p.[moe]([m5C])p.[moe](G)[sp].[moe](A)}$$$$ (last 3' nucleoside missing)” gave a 3 h FOB score of 2 score 0-7.

For “RNA1{[moe](A)[sp].[moe]([m5C])p.[moe]([m5C])p.[moe](A)p.[moe](T)p.d([m5C])[sp].d([m5C])[sp].d(T)[sp].d(T)[sp].d(A)[sp].d(A)[sp].d(A)[sp].d(A)[sp].d([m5C])[sp].d([m5C])[sp].[moe](G)p.[moe](T)p.[moe](G)[sp].[moe](T)}$$$$ (last 3' nucleoside missing)”, the 3 h FOB score is 1 score 0-7.

“RNA1{[moe](T)[sp].[moe]([m5C])p.[moe]([m5C])p.[moe](A)p.[moe]([m5C])p.d(G)[sp].d(A)[sp].d(A)[sp].d(T)[sp].d(T)[sp].d([m5C])[sp].d(A)[sp].d(G)[sp].d(T)[sp].d(T)[sp].[moe](T)p.[moe](G)p.[moe](T)[sp].[moe](G)}$$$$ (last 3' nucleoside missing)” returned a 3 h FOB score of 4 score 0-7.

With “RNA1{[moe](G)[sp].[moe](T)p.[moe](A)p.[moe](G)p.[moe](G)p.d(G)[sp].d(T)[sp].d([m5C])[sp].d([m5C])[sp].d(T)[sp].d(T)[sp].d([m5C])[sp].d(A)[sp].d(A)[sp].d(A)[sp].[moe](T)p.[moe]([m5C])p.[moe](T)[sp].[moe](T)}$$$$ (last 3' nucleoside missing)”, the 3 h FOB score is 1 score 0-7.

The substance “RNA1{[moe](G)[sp].[moe](T)p.[moe](T)p.[moe](A)p.[moe]([m5C])p.d(A)[sp].d(A)[sp].d(T)[sp].d(T)[sp].d(A)[sp].d([m5C])[sp].d(A)[sp].d(T)[sp].d(A)[sp].d(G)[sp].[moe](T)p.[moe]([m5C])p.[moe]([m5C])[sp].[moe](G)}$$$$ (last 3' nucleoside missing)” displayed a 3 h FOB score of 4.5 score 0-7.

For the substance “RNA1{[moe](G)[sp].[moe]([m5C])p.[moe]([m5C])p.[moe](A)p.[moe]([m5C])p.d(A)[sp].d(G)[sp].d(A)[sp].d([m5C])[sp].d(T)[sp].d([m5C])[sp].d(A)[sp].d(A)[sp].d(T)[sp].d(T)[sp].[moe](G)p.[moe](T)p.[moe](A)[sp].[moe](A)}$$$$ (last 3' nucleoside missing)”, the 3 h FOB score was determined as 1 score 0-7.

Substance “RNA1{[moe]([m5C])[sp].[moe]([m5C])p.[moe](G)p.[moe](T)p.[moe](G)p.d(T)[sp].d(T)[sp].d(G)[sp].d(T)[sp].d(T)[sp].d(T)[sp].d([m5C])[sp].d([m5C])[sp].d([m5C])[sp].d([m5C])[sp].[moe](G)p.[moe](A)p.[moe](A)[sp].[moe](A)}$$$$ (last 3' nucleoside missing)” gave a 3 h FOB score of 1 score 0-7.

Consider “RNA1{[moe](G)[sp].[moe](T)p.[moe]([m5C])p.[moe](A)p.[moe](G)p.d(G)[sp].d(T)[sp].d(T)[sp].d(A)[sp].d(A)[sp].d([m5C])[sp].d([m5C])[sp].d(A)[sp].d(T)[sp].d(T)[sp].[moe](A)p.[moe]([m5C])p.[moe]([m5C])[sp].[moe](A)}$$$$ (last 3' nucleoside missing)”, for which the 3 h FOB score amounted to 2.5 score 0-7.

For “RNA1{[moe]([m5C])[sp].[moe]([m5C])[sp].[moe](T)[sp].[moe](G)[sp].[moe](G)[sp].d(T)[sp].d(T)[sp].d(A)[sp].d(T)[sp].d(T)[sp].d(T)[sp].d([m5C])[sp].d([m5C])[sp].d([m5C])[sp].d(A)[sp].[moe](T)[sp].[moe](G)[sp].[moe](A)[sp].[moe](G)}$$$$ (last 3' nucleoside missing)”, the 3 h FOB score turned out to be 6 score 0-7.

“RNA1{[moe](A)[sp].[moe](G)p.[moe](G)p.[moe](T)p.[moe](T)p.d(A)[sp].d([m5C])[sp].d(A)[sp].d(A)[sp].d(A)[sp].d(A)[sp].d(T)[sp].d(A)[sp].d(A)[sp].d([m5C])[sp].[moe](G)p.[moe](A)p.[moe](G)[sp].[moe](G)}$$$$ (last 3' nucleoside missing)” yielded a 3 h FOB score of 5.75 score 0-7.

The substance “RNA1{[moe](G)[sp].[moe]([m5C])p.[moe](A)p.[moe](A)p.[moe](A)p.d(G)[sp].d(A)[sp].d(T)[sp].d(A)[sp].d(G)[sp].d(T)[sp].d(T)[sp].d(A)[sp].d([m5C])[sp].d([m5C])[sp].[moe]([m5C])p.[moe](T)p.[moe]([m5C])[sp].[moe]([m5C])}$$$$ (last 3' nucleoside missing)” gave a 3 h FOB score of 1 score 0-7.

“RNA1{[moe](G)[sp].[moe](T)p.[moe](T)p.[moe](T)p.[moe](A)p.d(T)[sp].d([m5C])[sp].d(T)[sp].d(G)[sp].d(A)[sp].d(A)[sp].d(T)[sp].d(T)[sp].d([m5C])[sp].d(G)[sp].[moe]([m5C])p.[moe]([m5C])p.[moe](A)[sp].[moe](T)}$$$$ (last 3' nucleoside missing)” displayed a 3 h FOB score of 5.25 score 0-7.

In the case of “RNA1{[moe](G)[sp].[moe](G)p.[moe]([m5C])p.[moe](A)p.[moe](T)p.d(T)[sp].d([m5C])[sp].d(T)[sp].d(A)[sp].d([m5C])[sp].d([m5C])[sp].d([m5C])[sp].d(T)[sp].d(A)[sp].d([m5C])[sp].[moe]([m5C])p.[moe]([m5C])p.[moe]([m5C])[sp].[moe](T)}$$$$ (last 3' nucleoside missing)”, the 3 h FOB score was determined as 1 score 0-7.

Turning to “RNA1{[moe](G)[sp].[moe](G)p.[moe](T)p.[moe]([m5C])p.[moe](A)p.d([m5C])[sp].d(T)[sp].d(T)[sp].d(T)[sp].d(T)[sp].d(A)[sp].d(A)[sp].d(T)[sp].d(G)[sp].d(G)[sp].[moe](G)p.[moe](A)p.[moe](A)[sp].[moe]([m5C])}$$$$ (last 3' nucleoside missing)”, the 3 h FOB score stood at 4.75 score 0-7.

On to “RNA1{[moe](A)[sp].[moe](G)p.[moe](G)p.[moe]([m5C])p.[moe](A)p.d(A)[sp].d([m5C])[sp].d(T)[sp].d(T)[sp].d([m5C])[sp].d([m5C])[sp].d([m5C])[sp].d([m5C])[sp].d(T)[sp].d(T)[sp].[moe](A)p.[moe](A)p.[moe](A)[sp].[moe](G)}$$$$ (last 3' nucleoside missing)”, for which the 3 h FOB score worked out at 1 score 0-7.
